In US12319693B2, “Crystalline forms of CFTR modulators” (Vertex Pharmaceuticals Incorporated, priority 2019, dated 2025):

Legend:
[1] = Relative stability of polymorphic / solvate forms; type: physicochemical; conditions: water activity ≤0.95 at ambient temperature
[2] = Safety analysis of ongoing clinical study (Cohorts A1 to A5, B, C); type: in vivo, human
Description: A safety analysis of an ongoing clinical study was performed for 37 subjects in Cohorts A1 to A5, 33 subjects in Cohort B, and 17 subjects in Cohort C, who were exposed to at least 1 dose of study drug (Compound I or placebo) as a monotherapy and as part of a triple combination with Compound II or Compound III.

F508del CFTR [3] = molecular target: T1, F508del CFTR (Homo sapiens, UniProt P13569, DEL508-508); test: Ussing chamber chloride transport in F508del/F508del HBE cells; type: cell-based; conditions: for chloride transport (effect in words): Compound I alone 16 to 24 h, Compound III added in the presence of Compound I or Compound I/Compound II
T1 construct: HBE cells derived from 3 F508del homozygous donors and 5 F508del/MF donors; endogenous in cells; host or cells: primary HBE cells from F508del/F508del and F508del/MF donors
Description: (§1) Ussing chamber studies were conducted to measure F508del CFTR-mediated chloride transport in HBE cells derived from 3 F508del homozygous donors and 5 F508del/MF donors (G542X, 3 donors; E585X, 1 donor; 3905InsT, 1 donor). As a positive control, maximally effective concentrations of N-(benzenesulfonyl)-6-[3-[2-[1-(trifluoromethyl)cyclopropyl]ethoxy]pyrazol-1-yl]-2-[(4S)-2,2,4-trimethylpyrrolidin-1-yl]pyridine-3-carboxamide (see WO 2018/064632) and N-[(6-amino-2-pyridyl)sulfonyl]-6-(3-fluoro-5-isobutoxy-phenyl)-2-[(4S)-2,2,4-trimethylpyrrolidin-1-yl]pyridine-3-carboxamide (see WO 2016/057572) in combination with Compound II/Compound III were included in each experiment.
(§2) In these CF cell lines, CFTR-mediated chloride transport was low in the absence of CFTR modulators, which is consistent with little-to-no CFTR at the cell surface. […] However, the efficacy of Compound I/Compound III and Compound I/Compound II/Compound III was similar at their respective EC90 values.

[4] = Pharmacokinetics after a single oral administration in male monkeys; type: in vivo; conditions: nominal dose 1 mg/kg, oral bioavailability
Description: (§3) Following a single oral administration of Compound I in male animals, Compound I mean tmax values were 9 h in rats, 4 h in dogs, and 3 h in monkeys.

[5] = molecular target: CFTR-mediated chloride transport (Homo sapiens, UniProt P13569); test: Membrane potential dye assay in human intestinal epithelial enteroid cells; type: cell-based; conditions: 18-24 h incubation, acute 10 μM forskolin + 300 nM Compound III
Description: Base medium (ADF+++) consisted of Advanced DMEM/Ham's F12, 2 mM Glutamax, 10 mM HEPES, 1μ/ml penicillin/streptomycin.
Intestinal enteroid maintenance medium (IEMM) consisted of ADF+++, 1×B27 supplement, 1×N2 supplement, 1.25 mM N-acetyl cysteine, 10 mM Nicotinamide, 50 ng/mL hEGF, 10 nM Gastrin, 1 μg/mL hR-spondin-1, 100 ng/mL hNoggin, TGF-b type 1 inhibitor A-83-01, 100 μg/mL Primocin, 10 μM P38 MAPK inhibitor SB202190.
Bath 1 Buffer consisted of 1 mM MgCl2, 160 mM NaCl, 4.5 mM KCl, 10 mM HEPES, 10 mM Glucose, 2 mM CaCl2).
Chloride Free Buffer consisted of 1 mM Magnesium Gluconate, 2 mM Calcium Gluconate, 4.5 mM Potassium Gluconate, 160 mM Sodium Gluconate, 10 mM HEPES, 10 mM Glucose.
Bath1 Dye Solution consisted of Bath 1 Buffer, 0.04% Pluronic F127, 20 μM Methyl Oxonol, 30 μM CaCCinh-A01, 30 μM Chicago Sky Blue. […]
Enteroid cells were incubated with test compound in IEMM for 18-24 h at 37° C., 95% humidity and 5% CO2. […] Chloride transport was initiated by addition of Chloride Free Dye Stimulation Solution and the fluorescence signal was read for 15 min. […] Chloride transport was then expressed as a percentage of the chloride transport following treatment with 3 μM Compound I, 3 μM Compound II, and 300 nM acute Compound III triple combination control (% Activity). […]

[6] = Pharmacokinetics after a single oral administration in male rats; type: in vivo
Description: as §3

[7] = Systemic exposure with increasing dose and repeated oral administration for 28 d in dogs; type: in vivo; conditions: as the dose increased
Description: (§4) Following repeated oral administration of Compound I for 28 d in rats and dogs, accumulation of Compound I exposure was observed. Systemic exposure to Compound I on Day 28 was higher than on Day 1 (Day 28/Day 1 AUC024h ratio ranged from 1.63 to 2.70 in male rats, 5.01 to 8.26 in female rats, 1.73 to 2.64 in male dogs, and 1.82 to 2.23 in female dogs).

[8] = Pharmacokinetics after a single oral administration in male dogs; type: in vivo; conditions: nominal dose 1 mg/kg
Description: as §3

F508del CFTR [9] = molecular target: T1, F508del CFTR; test: Ussing chamber chloride transport in F508del/MF HBE cells; type: cell-based; conditions: for chloride transport (effect in words): Compound I alone 16 to 24 h, Compound III added in the presence of Compound I or Compound I/Compound II
Description: as §1, §2

[10] = Systemic exposure with increasing dose and repeated oral administration for 28 d in rats; type: in vivo
Description: as §4

[11] = with a fixed combination of Compound II
[12] = with a fixed concentration of Compound III or Compound II/Compound III

T1 sequence (P13569 with tags, fused parts or gaps DEL508-508): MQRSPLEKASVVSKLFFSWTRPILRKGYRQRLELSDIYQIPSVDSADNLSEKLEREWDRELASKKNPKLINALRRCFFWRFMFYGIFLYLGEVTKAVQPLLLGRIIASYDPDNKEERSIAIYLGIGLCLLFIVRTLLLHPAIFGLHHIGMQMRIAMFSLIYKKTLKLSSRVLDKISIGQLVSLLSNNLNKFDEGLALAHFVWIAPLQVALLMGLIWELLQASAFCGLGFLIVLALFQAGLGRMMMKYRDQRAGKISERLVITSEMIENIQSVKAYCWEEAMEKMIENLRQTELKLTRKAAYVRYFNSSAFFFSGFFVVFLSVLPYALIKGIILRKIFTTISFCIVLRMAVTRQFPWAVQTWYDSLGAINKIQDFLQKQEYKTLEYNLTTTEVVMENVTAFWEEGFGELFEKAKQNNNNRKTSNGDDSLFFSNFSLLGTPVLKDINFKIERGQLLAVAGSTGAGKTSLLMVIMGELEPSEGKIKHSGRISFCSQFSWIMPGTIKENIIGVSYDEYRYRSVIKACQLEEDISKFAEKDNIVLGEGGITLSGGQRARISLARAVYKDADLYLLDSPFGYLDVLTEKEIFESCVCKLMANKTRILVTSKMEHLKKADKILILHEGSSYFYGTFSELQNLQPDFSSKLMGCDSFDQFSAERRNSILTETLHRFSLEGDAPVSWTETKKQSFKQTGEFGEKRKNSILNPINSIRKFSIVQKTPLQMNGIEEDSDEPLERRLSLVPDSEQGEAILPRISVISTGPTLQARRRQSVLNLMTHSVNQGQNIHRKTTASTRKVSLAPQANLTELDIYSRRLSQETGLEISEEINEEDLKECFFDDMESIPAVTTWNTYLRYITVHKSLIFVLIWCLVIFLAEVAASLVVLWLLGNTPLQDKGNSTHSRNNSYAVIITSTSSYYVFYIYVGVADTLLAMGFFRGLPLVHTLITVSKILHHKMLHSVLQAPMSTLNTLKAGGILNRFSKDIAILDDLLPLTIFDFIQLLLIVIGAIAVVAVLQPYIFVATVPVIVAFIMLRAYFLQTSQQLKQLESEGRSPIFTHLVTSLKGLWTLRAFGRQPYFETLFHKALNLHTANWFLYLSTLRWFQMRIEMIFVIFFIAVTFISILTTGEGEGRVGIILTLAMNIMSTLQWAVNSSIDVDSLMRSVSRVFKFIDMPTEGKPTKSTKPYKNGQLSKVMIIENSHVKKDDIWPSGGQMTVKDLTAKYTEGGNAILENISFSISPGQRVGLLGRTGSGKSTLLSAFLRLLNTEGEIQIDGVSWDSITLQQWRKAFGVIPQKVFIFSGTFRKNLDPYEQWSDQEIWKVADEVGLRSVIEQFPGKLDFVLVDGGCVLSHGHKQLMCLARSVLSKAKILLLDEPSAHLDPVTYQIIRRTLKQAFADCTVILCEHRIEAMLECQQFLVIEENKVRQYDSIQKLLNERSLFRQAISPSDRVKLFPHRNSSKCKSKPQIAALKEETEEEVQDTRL
CFTR-mediated chloride transport, sequence (P13569 whole entry): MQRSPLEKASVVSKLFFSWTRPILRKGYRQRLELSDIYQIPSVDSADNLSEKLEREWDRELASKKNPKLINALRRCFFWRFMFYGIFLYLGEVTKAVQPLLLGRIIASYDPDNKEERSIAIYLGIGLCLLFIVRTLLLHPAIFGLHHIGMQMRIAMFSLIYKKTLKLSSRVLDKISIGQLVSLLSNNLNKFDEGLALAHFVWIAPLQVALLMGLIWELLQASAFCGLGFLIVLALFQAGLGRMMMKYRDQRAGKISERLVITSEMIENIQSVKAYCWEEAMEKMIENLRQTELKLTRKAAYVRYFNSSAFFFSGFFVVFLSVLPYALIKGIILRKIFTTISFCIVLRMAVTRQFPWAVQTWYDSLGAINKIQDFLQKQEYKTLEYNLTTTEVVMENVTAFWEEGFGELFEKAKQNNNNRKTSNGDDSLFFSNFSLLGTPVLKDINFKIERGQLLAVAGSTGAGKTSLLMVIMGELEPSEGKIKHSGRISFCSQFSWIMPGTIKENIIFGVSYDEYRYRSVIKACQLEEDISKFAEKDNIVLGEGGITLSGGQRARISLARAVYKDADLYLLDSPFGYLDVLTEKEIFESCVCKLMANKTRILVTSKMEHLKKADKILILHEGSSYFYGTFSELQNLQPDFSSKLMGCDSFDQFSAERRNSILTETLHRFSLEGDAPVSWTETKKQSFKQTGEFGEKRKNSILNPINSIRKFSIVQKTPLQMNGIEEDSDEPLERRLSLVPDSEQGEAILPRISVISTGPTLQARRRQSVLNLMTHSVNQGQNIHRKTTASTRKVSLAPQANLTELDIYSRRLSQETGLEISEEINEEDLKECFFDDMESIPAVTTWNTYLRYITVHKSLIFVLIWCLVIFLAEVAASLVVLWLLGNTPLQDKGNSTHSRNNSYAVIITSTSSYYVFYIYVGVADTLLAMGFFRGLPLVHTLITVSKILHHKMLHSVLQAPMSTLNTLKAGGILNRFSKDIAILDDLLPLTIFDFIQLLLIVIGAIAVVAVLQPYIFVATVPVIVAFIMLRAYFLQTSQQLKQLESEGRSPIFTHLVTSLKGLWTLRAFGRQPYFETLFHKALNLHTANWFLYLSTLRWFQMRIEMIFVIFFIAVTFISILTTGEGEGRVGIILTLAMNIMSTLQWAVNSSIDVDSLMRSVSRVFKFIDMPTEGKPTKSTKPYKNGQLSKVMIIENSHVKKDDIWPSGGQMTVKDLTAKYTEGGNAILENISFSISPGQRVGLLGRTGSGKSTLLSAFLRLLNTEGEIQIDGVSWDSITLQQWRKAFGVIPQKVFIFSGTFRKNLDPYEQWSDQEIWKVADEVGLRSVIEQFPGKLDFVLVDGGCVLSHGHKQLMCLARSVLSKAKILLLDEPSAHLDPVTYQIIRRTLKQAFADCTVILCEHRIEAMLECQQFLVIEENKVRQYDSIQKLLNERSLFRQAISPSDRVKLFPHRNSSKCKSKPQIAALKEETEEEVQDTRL

SMILES	relative polymorphic stability [1]	safety and tolerability ([2]; up to 20 mg qd in triple combination with Compound II and Compound III)	safety and tolerability ([2]; up to a dose of 60 mg qd in monotherapy)	chloride transport (effect in words) (F508del CFTR [3])	synergy analysis (F508del CFTR [3]; [11])	synergy analysis (F508del CFTR [3]; [12])	F [4] [%]	EC50 [5] [µM]	Max. Activity ([5]; % of chloride transport with 3 μM Compound I, 3 μM Compound II, 300 nM acute Compound III control)	F ([6]; nominal dose 3 mg/kg, oral bioavailability) [%]	bioavailability ([6]; rat, in vivo, 3 mg/kg, read-out: Mean oral bioavailability (F)) [%]	increase of systemic exposure with dose [7]	tmax ([8]; mean ± SD (n = 3)) [h]	F ([8]; oral bioavailability) [%]	chloride transport (effect in words) (F508del CFTR [9])	synergy analysis (F508del CFTR [9]; [11])	synergy analysis (F508del CFTR [9]; [12])	Dosenormalized exposure, sex difference [10]	increase of systemic exposure with dose ([10]; as the dose increased)
CC1(C)C[C@@H]2CCCNc3cccc(n3)S(=O)(=O)NC(=O)c3ccc(-n4ccc(OCCC5C6(CC6)C56CC6)n4)nc3N1C2 [Compound I free Form A]	most stable polymorphic form	–	–	–	–	–	–	–	–	–	–	–	–	–	–	–	–	–	–
CC1(C)C[C@@H]2CCCNc3cccc(n3)S(=O)(=O)NC(=O)c3ccc(-n4ccc(OCCC5C6(CC6)C56CC6)n4)nc3N1C2 [Compound I, (14S)-8-[3-(2-{Dispiro[2.0.2.1]heptan-7-yl}ethoxy)-1H-pyrazol-1-yl]-12,12-dimethyl-2λ6-thia-3,9,11,18,23-pentaazatetracyclo[17.3.1.111,14.05,10]tetracosa-1(22),5,7,9,19(23),20-hexaene-2,2,4-trione]	–	generally safe and well-tolerated	generally safe and well-tolerated	modest increase in chloride transport	modestly synergistic	highly synergistic	12.9	< 1	+++ (+++ is >60%)	76.9	76.9	more than doseproportional	4.00 ± 0.00	49.7	modest increase in chloride transport	modestly synergistic	highly synergistic	higher in female rats than male rats	more than doseproportional
CC(C)(C)c1cc(C(C)(C)C)c(NC(=O)c2c[nH]c3ccccc3c2=O)cc1O [Compound III, N-[2,4-bis(1,1-dimethylethyl)-5-hydroxyphenyl]-1,4-dihydro-4-oxoquinoline-3-carboxamide, reference compound]	–	–	–	strongly potentiated chloride transport	–	–	–	–	–	–	–	–	–	–	strongly potentiated chloride transport	–	–	–	–
